Assay results taken from patent US10538561B2, “Peptide for treating inflammatory diseases” (priority 2015, dated 2020).

Assays:
[1] = Cell viability of splenocytes (MTT); assay type: cell-based, mouse; conditions: mouse
Method: (§1) Cell lines: mouse splenocytes; test item: IS181; treatment regimen: single addition—24 hours; concentration range: 10 μg/ml-5000 μg/ml.A) Identification of non-cytotoxic concentrations: splenocytes were treated with IS181 for 24 hours. Effect on cell viability was assessed by MTT assay. Concentrations leading to >75% cell viability were selected for IL-17 assay. B) IL-17 assay: splenocytes were treated with IS181 in presence of ConA stimulation for 24 hours. Supernatants were collected and stored at −20° C. till analysed. Levels of IL-17 were analysed in supernatants by ELISA. Percent inhibition of IL-17 secretion was calculated with reference to ConA treated levels. Positive control: curcumin.

IL-23 = IL-23 secretion in LPS+IFN-γ stimulated THP-1; assay type: cell-based, Human; conditions: THP-1 + LPS + IFN-γ, 24 h
Method: (§2) Cell lines: Human monocytic cell line (THP-1); test item: IS181: treatment regimen; single addition—24 hours; concentration range: 10 μg/ml-5000 μg/ml. A) Identification of non-cytotoxic concentrations: THP-1 cells were treated with IS181 for 24 hours; effect on cell viability was assessed by MTT assay; concentrations leading to >75% cell viability were selected for IL-23 assay. […] Positive control: curcumin. […] Since supernatants corresponding to 5 concentrations were to be tested for […], we also tested 1 mg/ml.

[2] = Cell viability of THP-1 (MTT); assay type: cell-based, Human; conditions: human
Method: as §2

IL-17 = IL-17 secretion in ConA stimulated splenocytes; assay type: cell-based, mouse; conditions: splenocytes + ConA, 24 h
Method: as §1

[3] = system: Human Keratinocytes (HaCaT); assay: Annexin-V assay; assay type: cell-based; conditions: 10 μM-50 μM
Method: Cell lines: Human Keratinocytes (HaCaT); test Item (TI): IS181; Treatment regimen: treated twice (once after 24 hours)-48 hours; concentration range: 100 6 g/ml-5000 6 g/ml. […] (c) cells were treated with IS181 for 24 hours; (d) after 24 hours, cells were again treated with IS181 for 24 hours; (e) after 48 hours of first treatment, cells were stained with Annexin-V reagent and acquired on flow cytometer; (f) fold increase in apoptotic cells (early and late apoptotic) and necrotic cells was calculated with respect to untreated control cells. Positive control: Curcumin. […] (FIG. 4)

VEGF = VEGF inhibition in keratinocytes (ELISA); assay type: cell-based, Human; conditions: HaCaT
Method: Cell lines: Human Keratinocytes (HaCaT); test item: IS181; treatment regimen: single addition—24 hours; concentration range: 0.1 μg/ml-100 μg/ml. […] Cells were serum-starved for another 24 hours (0% FBS). Cells were treated with IS181 for 24 hours. Supernatants were collected and stored at −20° C. till analysed. Levels of VEGF were analysed in supernatants by ELISA. Percent inhibition of VEGF secretion was calculated with reference to untreated levels. Positive control: curcumin; retinoic acid (at non-cytotoxic concentrations).

[4] = system: Human endothelial cells (EA.hy 926); assay: Inhibition of FBS stimulated endothelial cell proliferation (MTT); assay type: cell-based
Method: Cell line: Human endothelial cells (EA.hy 926); test item: IS 181: treatment regimen: multiple additions (3)-72 hours; concentration range: 1 6 g/ml to 5000 6 g/ml (triplicate wells); sera condition: medium containing 10% FBS. […] The cells were then subjected to complete serum starvation. The cells were retreated with 10% FBS to stimulate cellular proliferation. […] Inhibition of FBS stimulated cell proliferation was measured using MTT assay. End point: percentage inhibition of FBS stimulated cell proliferation. Positive controls: anthralin; paclitaxel.

[5] = system: Human endothelial cells (EA.hy 926); assay: Inhibition of endothelial cell migration (wound); assay type: cell-based; conditions: Homo sapiens, EA.hy 926; EA.hy926, 14 h, 10 nM; read-out: % Inhibition of migration with respect to respective 0 h control
Method: Cell line: Human endothelial cells (EA.hy 926); test item: IS 181; treatment regimen: single addition; concentration range: 0.1 μg/ml-1 mg/ml; sera condition: medium containing 10% FBS. […] The cells were then subjected to serum starved with medium containing 1% FBS for 24 hours. 24 hours post serum starvation, the wounds (straight line) were created in the middle of the well using a sterile 200 μl pipette tip. Cells were washed twice using DMEM followed by treatment with different concentrations of IS 181 in DMEM containing 10% FBS. Images of wound were taken at 0 h and 14 h at three points in single well and distance of wound closure was measured using Image J software. End point: image analysis of cell migration of different concentrations of IS 181 treated cells at 0 hour and after 14 hours of treatment. Percentage inhibition in cell migration of different concentrations of IS 181 treated cells were calculated after 14 h of treatment with respect to respective 0 hours (FIG. 13). […] (FIGS. 14A-14B).

Human PBMCs = assay: Cell viability (MTT assay) in PBMCs; assay type: cell-based
Method: (§3) Cell Lines/Cells: Human Keratinocytes (HaCaT); Human melanoma (SK-MEL-28); Human PBMCs. Test Item: IS181 Treatment regimen: Single addition—24 h, ^#Multiple additions (3)−72 h; Concentration range: 1 ng/ml-2 mg/ml (triplicate wells); Sera Condition: […] Method of estimation: MTT assay. […] Positive control: Triton-X-100, Doxorubicin Hydrochloride.

[6] = system: Human melanoma (SK-MEL-28); assay: Cell viability (MTT assay) in SK-MEL-28; assay type: cell-based
Method: as §3

[7] = system: HaCaT (Human keratinocyte); assay: LDH enzyme release assay; assay type: cell-based
Method: (§4) For testing Apoptosis the Human Keratinocytes (HaCaT) cell line has been employed. The growth conditions are DMEM containing 1% FBS. […] Test concentration range is IS181 is tested at the highest (Qualitative analysis) effective concentrations selected on the basis of Quantitative JC-1 assay. The method of estimation is Mitochondrial membrane depolarization by JC-1 assay (Early apoptosis), LDH enzyme release (Necrosis). Treatment regimen & time points are JC-1 assay—Single addition, 20 h; LDH assay—Single addition, 24 h; Positive control: Triton-X-100, Doxorubicin-hydrochloride
End-point: Percentage increase in LDH activity in treated cells with respect to untreated.

[8] = system: HaCaT (Human keratinocyte) cell line; assay: Mitochondrial membrane potential by JC-1 assay; assay type: cell-based
Method: as §4
Quantitative effect on Δψm (Red fluorescence/Green fluorescence) in HaCaT cells post 20 hours of treatment. […] Evaluation (Qualitative and quantitative) of differential JC-1 staining in treated cells after 20 h on incubation with the test peptides.

COc1cc(/C=C/C(=O)CC(=O)/C=C/c2ccc(O)c(OC)c2)ccc1O [Curcumin, reference compound]
viability at 24 h [1]: > 75% | viability at 24 h, 1 µM [1]: 97.5% | viability at 24 h, 10 µM [1]: 82% | viability at 24 h, 20 µM [1]: 40.4% | inhibition at 1 µM (IL-23; Homo sapiens, 1 μM, read-out: % Inhibition of IL-23 wrt Control (LPS + IFN-γ)): 91.6% | inhibition at 10 µM (IL-23; Homo sapiens, 10 μM, read-out: % Inhibition of IL-23 wrt Control (LPS + IFN-γ)): 90.6% | Conc. of IL-23 (IL-23; 1 μM): 7.1 pg/mL | Conc. of IL-23 (IL-23; 10 μM): 7.9 pg/mL | viability at 24 h, 1 µM [2]: 94.7% | viability at 24 h, 10 µM [2]: 103% | viability at 24 h, 20 µM [2]: 107% | inhibition at 1 µM (IL-17; Mus musculus, Splenocyte, 1 μM, read-out: % Inhibition of IL-17 wrt Control (ConA)): 40.5% | inhibition at 10 µM (IL-17; Mus musculus, Splenocyte, 10 μM, read-out: % Inhibition of IL-17 wrt Control (ConA)): 42.5% | Conc. of IL-17 (IL-17; 1 μM): 27.7 pg/mL | Conc. of IL-17 (IL-17; 10 μM): 26.7 pg/mL | increase in early apoptotic cells [3]: 12.8-152.5 fold | increase in late apoptotic cells [3]: 2.4-138.4 fold | VEGF inhibition (VEGF; 20 uM): did not result in any VEGF inhibition | Conc. of VEGF (VEGF; 24 h, 1 μM): 3059.1 pg/mL | inhibition at 1 µM (VEGF; Homo sapiens, 24 h, 1 μM, read-out: % Inhibition of VEGF wrt untreated (basal) levels): 14.9%

CC(=O)O[C@H]1C(=O)[C@@]2(C)[C@H]([C@H](OC(=O)c3ccccc3)[C@]3(O)C[C@H](OC(=O)[C@H](O)[C@@H](NC(=O)c4ccccc4)c4ccccc4)C(C)=C1C3(C)C)[C@]1(OC(C)=O)CO[C@@H]1C[C@@H]2O [Paclitaxel]
Absorbance (Mean ± SD) at 540 nm ([4]; EA.hy926, 10 nM): 0.36 ± 0.012 | Absorbance (Mean ± SD) at 540 nm ([4]; EA.hy926, 50 nM): 0.23 ± 0.008 | Absorbance (Mean ± SD) at 540 nm ([4]; EA.hy926, 100 nM): 0.19 ± 0.006 | Absorbance (Mean ± SD) at 540 nm ([4]; EA.hy926, 500 nM): 0.16 ± 0.003 | Absorbance (Mean ± SD) at 540 nm ([4]; EA.hy926, 1000 nM): 0.06 ± 0.001 | inhibition at 0.01 µM ([4]; Homo sapiens, EA.hy 926, EA.hy926, 10 nM, read-out: ¾ Inhibition of FBS stimulated cell growth): 27.6% | inhibition at 0.05 µM ([4]; Homo sapiens, EA.hy 926, EA.hy926, 50 nM, read-out: ¾ Inhibition of FBS stimulated cell growth): 58.9% | inhibition at 0.1 µM ([4]; Homo sapiens, EA.hy 926, EA.hy926, 100 nM, read-out: ¾ Inhibition of FBS stimulated cell growth): 62.7% | inhibition at 0.5 µM ([4]; Homo sapiens, EA.hy 926, EA.hy926, 500 nM, read-out: ¾ Inhibition of FBS stimulated cell growth): 70.1% | inhibition at 1 µM ([4]; Homo sapiens, EA.hy 926, EA.hy926, 1000 nM, read-out: ¾ Inhibition of FBS stimulated cell growth): 89.4% | inhibition at 0.01 µM [5]: 71%

Triton X-100 [reference compound]
cytotoxicity (Human PBMCs): 70% to 77% | cytotoxicity [6]: > 90% | % Increase with respect to untreated (LDH) ([7]; 0.01%): −30.27% | LDH Activity (mU/ml) ([7]; 0.01%): 44.11 mU/ml | % Increase with respect to untreated (LDH) ([7]; 0.1%): ***95.84% | LDH Activity (mU/ml) ([7]; 0.1%): 123.88 mU/ml | Green fluorescence intensity (RFU) ([8]; 0.01%): 20.5 ± 17.68 RFU | Red fluorescence intensity (RFU) ([8]; 0.01%): 33.25 ± 32.17 RFU | Red fluorescence intensity/Green fluorescence intensity ([8]; 0.01%): *1.62 | Green fluorescence intensity (RFU) ([8]; 0.1%): 22.33 RFU | Red fluorescence intensity (RFU) ([8]; 0.1%): 16.33 RFU | Red fluorescence intensity/Green fluorescence intensity ([8]; 0.1%): *0.73
